Laboratory results as given in the supplement of paper PMC10331698.
± gives the standard deviation of the averaged measurements.

Experiments:
Test in all cases: level (log10 ratio to DMSO vehicle control); higher = higher biomarker level / cell amount than vehicle control
Details in all cases: in DMSO
[1] = compound: OCC(F)(F)C(F)(F)C(F)(F)C(F)(F)C(F)(F)C(F)(F)F [6:1 Fluorotelomer alcohol]
Protocol: (§1)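 BioMAP Diversity Plus panel of 12 human primary cell co-culture systems (3C, 4H, LPS, SAg, BT, BF4T, BE3C, CASM3C, HDF3CGF, KF3CT, MyoF, Mphg). Compounds were added 1 h before stimulation and left for 24 h (MyoF 48 h; BT 72 h for soluble read-outs or 6 d for IgG). Biomarkers were read by ELISA, cytotoxicity by SRB, PBMC viability and proliferation by Alamar Blue. Each well value was divided by the mean of 8 DMSO control wells on the same plate and log10 transformed; duplicate blinded samples were tested at 4 concentrations.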

[2] = compound: O=P(O)(O)CCC(F)(F)C(F)(F)C(F)(F)C(F)(F)C(F)(F)C(F)(F)F [2-(Perfluorohexyl)ethylphosphonic acid]
Protocol: as §1

[3] = compound: O=S(=O)(O)CCC(F)(F)C(F)(F)C(F)(F)C(F)(F)F [4:2 Fluorotelomer sulfonic acid]
Protocol: as §1

[4] = compound: OCCCCC(F)(F)C(F)(F)C(F)(F)C(F)(F)F [4:4 Fluorotelomer alcohol]
Protocol: as §1

Perfluorooctanoic acid = compound: O=C(O)C(F)(F)C(F)(F)C(F)(F)C(F)(F)C(F)(F)C(F)(F)C(F)(F)F [Perfluorooctanoic acid]
Protocol: as §1

[5] = compound: C=CC(=O)OCCC(F)(F)C(F)(F)C(F)(F)C(F)(F)C(F)(F)C(F)(F)C(F)(F)C(F)(F)F [8:2 Fluorotelomer acrylate]
Protocol: as §1

Test System | level (log10) ([1]; 6700 nM) | level (log10) ([1]; 20000 nM) | level (log10) ([1]; 60000 nM) | level (log10) ([2]; 6700 nM) | level (log10) ([2]; 20000 nM) | level (log10) ([2]; 60000 nM) | level (log10) ([3]; 6700 nM) | level (log10) ([3]; 20000 nM) | level (log10) ([3]; 60000 nM) | level (log10) ([4]; 6700 nM) | level (log10) ([4]; 20000 nM) | level (log10) ([4]; 60000 nM) | level (log10) (Perfluorooctanoic acid; 6700 nM) | level (log10) (Perfluorooctanoic acid; 20000 nM) | level (log10) (Perfluorooctanoic acid; 60000 nM) | level (log10) ([5]; 6700 nM) | level (log10) ([5]; 20000 nM) | level (log10) ([5]; 60000 nM)
BE3C:CXCL9/MIG | -0.005 ± 0.013 | -0.002 ± 0.0099 | -0.545 ± 0.4 | -0.008 ± 0.0057 | -0.0075 ± 0.0021 | 0.003 ± 0.02 | -0.003 ± 0.0057 | -0.005 ± 0.0099 | 0.0095 ± 0.012 | 0.01 ± 0.0042 | -0.0025 ± 0.005 | 0.0095 ± 0.0092 | -0.0025 ± 0.0035 | -0.0045 ± 0.005 | 0.002 ± 0.018 | -0.0115 ± 0.0035 | -0.0075 ± 0.00071 | 0.0115 ± 0.021
BE3C:CXCL10/IP-10 | 0.0355 ± 0.005 | 0.028 ± 0.011 | 0.0075 ± 0.025 | -0.056 ± 0.058 | -0.057 ± 0.067 | -0.0455 ± 0.09 | -0.0055 ± 0.00071 | -0.006 ± 0.0085 | -0.0035 ± 0.011 | -0.0035 ± 0.0021 | 0 | 0.014 ± 0.017 | -0.021 ± 0.017 | -0.0275 ± 0.013 | -0.118 ± 0.022 | -0.0215 ± 0.015 | -0.0165 ± 0.023 | 0.0005 ± 0.05
BE3C:CXCL11/I-TAC | 0.027 ± 0.0057 | 0.011 ± 0.017 | 0.008 ± 0.0099 | -0.0205 ± 0.0078 | -0.0235 ± 0.0064 | -0.0415 ± 0.032 | 0.008 ± 0.0042 | 0.043 ± 0.033 | 0.0485 ± 0.0092 | -0.013 ± 0.0028 | -0.0125 ± 0.00071 | -0.0025 ± 0.015 | -0.0225 ± 0.032 | -0.0225 ± 0.029 | -0.0095 ± 0.016 | -0.019 ± 0.011 | -0.0115 ± 0.013 | 0.003 ± 0.011
BE3C:EGFR | 0.0115 ± 0.0064 | 0.0035 ± 0.011 | -0.0585 ± 0.081 | -0.0045 ± 0.0021 | -0.015 ± 0.014 | 0.0005 ± 0.022 | 0.0115 ± 0.00071 | -0.009 ± 0.0014 | 0.002 ± 0.0085 | 0.025 ± 0.0085 | 0.022 ± 0.038 | 0.02 ± 0.065 | -0.0165 ± 0.012 | -0.025 ± 0.011 | -0.018 ± 0.037 | -0.0155 ± 0.0021 | -0.015 ± 0.013 | 0.003 ± 0.025
BE3C:HLA-DR | 0.009 ± 0.025 | -0.0085 ± 0.026 | -0.077 ± 0.13 | -0.0045 ± 0.018 | -0.012 ± 0.021 | 0.01 ± 0.038 | -0.013 ± 0.0085 | 0.003 ± 0.0042 | -0.0225 ± 0.0021 | -0.0005 ± 0.018 | -0.0075 ± 0.0064 | -0.0035 ± 0.016 | -0.023 ± 0.0042 | -0.0225 ± 0.023 | -0.013 ± 0.034 | -0.0045 ± 0.011 | 0.009 ± 0.017 | 0.019 ± 0.034
BE3C:IL-1alpha | -0.019 ± 0.0014 | 0.008 ± 0.0014 | -0.0155 ± 0.04 | -0.01 ± 0.0014 | -0.0245 ± 0.005 | -0.007 ± 0.023 | -0.011 ± 0.0014 | -0.011 ± 0.013 | 0.0045 ± 0.0092 | 0.0255 ± 0.00071 | 0.0095 ± 0.011 | 0.0155 ± 0.021 | 0.0075 ± 0.00071 | -0.0035 ± 0.0035 | 0.0185 ± 0.016 | -0.007 ± 0.021 | -0.015 ± 0.0042 | 0.0165 ± 0.029
BF4T:CCL2/MCP-1 | 0.0155 ± 0.015 | -0.014 ± 0.028 | 0.0285 ± 0.015 | 0.001 ± 0.0028 | 0.0015 ± 0.023 | -0.009 ± 0.0028 | 0.0145 ± 0.037 | 0.0075 ± 0.00071 | 0.0395 ± 0.022 | 0.0115 ± 0.044 | 0.007 ± 0.024 | 0.048 ± 0.099 | 0.0265 ± 0.018 | 0.015 ± 0.013 | -0.0835 ± 0.039 | -0.007 ± 0.038 | -0.0265 ± 0.015 | -0.026 ± 0.041
BF4T:CCL26/Eotaxin-3 | 0.0385 ± 0.026 | 0.0185 ± 0.022 | 0.0445 ± 0.03 | -0.0135 ± 0.022 | -0.04 ± 0.0099 | -0.034 ± 0.079 | -0.002 ± 0.052 | -0.0065 ± 0.029 | 0.056 ± 0.047 | -0.0205 ± 0.046 | -0.0015 ± 0.015 | 0.0105 ± 0.047 | -0.023 ± 0.023 | -0.073 ± 0.013 | -0.11 ± 0.06 | -0.0555 ± 0.012 | -0.0785 ± 0.079 | -0.098 ± 0.12
BF4T:CD54/ICAM-1 | -0.0065 ± 0.023 | -0.01 ± 0.016 | -0.005 ± 0.018 | -0.022 ± 0.018 | -0.0245 ± 0.00071 | -0.0125 ± 0.0092 | -0.0085 ± 0.011 | -0.0125 ± 0.0092 | 0.006 ± 0.038 | -0.0055 ± 0.0035 | -0.0085 ± 0.011 | 0.0025 ± 0.0021 | -0.0115 ± 0.0064 | -0.0025 ± 0.012 | -0.014 ± 0.028 | -0.0145 ± 0.013 | -0.026 ± 0.0042 | -0.0285 ± 0.026
BF4T:CD90 | 0.0015 ± 0.0064 | -0.011 ± 0.0014 | 0.0035 ± 0.0092 | -0.0185 ± 0.023 | -0.0165 ± 0.005 | -0.008 ± 0.031 | -0.0075 ± 0.0092 | -0.018 ± 0.0042 | -0.011 ± 0.014 | -0.009 ± 0.013 | -0.0155 ± 0.012 | 0.0005 ± 0.018 | -0.0095 ± 0.022 | -0.006 ± 0.0028 | -0.0105 ± 0.019 | -0.0205 ± 0.018 | -0.019 ± 0.0099 | -0.0035 ± 0.021
BF4T:CD106/VCAM-1 | 0.0075 ± 0.0021 | -0.007 ± 0.031 | -0.032 ± 0.0028 | -0.0195 ± 0.03 | -0.0165 ± 0.016 | 0.0055 ± 0.047 | -0.0045 ± 0.0078 | -0.018 ± 0.0028 | 0.0085 ± 0.046 | -0.0145 ± 0.0064 | -0.0205 ± 0.018 | 0.0135 ± 0.043 | -0.037 ± 0.017 | -0.0345 ± 0.032 | 0 ± 0.065 | -0.038 ± 0.0071 | -0.06 ± 0.024 | -0.0235 ± 0.076
BF4T:CXCL8/IL-8 | 0.008 ± 0.057 | -0.0085 ± 0.039 | 0.013 ± 0.016 | -0.0405 ± 0.00071 | -0.0595 ± 0.0064 | -0.034 ± 0.0085 | -0.001 ± 0.052 | 0.0065 ± 0.016 | 0.001 ± 0.033 | -0.013 ± 0.021 | 0.018 ± 0.0057 | 0.0185 ± 0.005 | -0.0035 ± 0.013 | -0.0085 ± 0.0035 | -0.0025 ± 0.016 | -0.0395 ± 0.021 | -0.017 ± 0.028 | -0.004 ± 0.017
BF4T:IL-1alpha | -0.0005 ± 0.005 | 0.0035 ± 0.0021 | 0.0005 ± 0.011 | 0.0005 ± 0.015 | -0.014 ± 0.013 | 0.002 ± 0.042 | -0.0025 ± 0.015 | -0.013 ± 0.0028 | 0.0135 ± 0.029 | 0.0075 ± 0.013 | -0.0105 ± 0.0035 | -0.001 ± 0.017 | -0.009 ± 0.0057 | -0.0125 ± 0.018 | -0.0055 ± 0.018 | -0.0115 ± 0.013 | -0.0185 ± 0.00071 | 0.015 ± 0.037
BF4T:Keratin 8/18 | -0.0085 ± 0.0092 | -0.0045 ± 0.023 | 0.03 ± 0.05 | -0.0045 ± 0.015 | -0.0065 ± 0.012 | 0.0105 ± 0.022 | 0.0015 ± 0.005 | -0.0195 ± 0.025 | 0.017 ± 0.024 | 0.012 ± 0.0028 | -0.001 ± 0.0014 | 0.009 ± 0.034 | -0.0045 ± 0.012 | -0.0025 ± 0.0092 | 0.0025 ± 0.022 | -0.014 ± 0.0042 | -0.0045 ± 0.00071 | 0.0115 ± 0.015
BF4T:MMP-1 | 0.002 ± 0.014 | 0.0025 ± 0.0078 | -0.011 ± 0.0028 | -0.0045 ± 0.0092 | -0.004 | 0.0035 ± 0.026 | -0.002 ± 0.017 | -0.0115 ± 0.005 | 0.0055 ± 0.0092 | 0.0075 ± 0.018 | 0.0045 ± 0.025 | 0.009 ± 0.03 | -0.002 ± 0.0057 | -0.0005 ± 0.0078 | 0.0265 ± 0.018 | 0.002 ± 0.0057 | 0.0025 ± 0.0021 | 0.0175 ± 0.022
BF4T:MMP-3 | -0.012 ± 0.018 | -0.0195 ± 0.0064 | -0.002 ± 0.021 | -0.0205 ± 0.005 | -0.0125 ± 0.022 | -0.002 ± 0.023 | -0.031 ± 0.013 | -0.0235 ± 0.018 | 0.0295 ± 0.069 | 0.0075 ± 0.021 | 0.017 ± 0.041 | 0.0295 ± 0.067 | -0.007 ± 0.018 | 0.007 ± 0.0028 | 0.023 ± 0.021 | -0.014 ± 0.0057 | -0.022 ± 0.0057 | 0.0085 ± 0.028
BF4T:MMP-9 | -0.023 ± 0.016 | -0.004 ± 0.011 | 0.014 ± 0.0085 | -0.0155 ± 0.00071 | -0.0015 ± 0.0078 | 0.018 ± 0.035 | -0.023 ± 0.023 | -0.02 ± 0.0028 | 0.0205 ± 0.033 | 0.0045 ± 0.013 | -0.0015 ± 0.013 | 0.0275 ± 0.06 | -0.006 ± 0.0057 | 0.02 ± 0.013 | 0.0215 ± 0.013 | -0.0255 ± 0.0064 | -0.0215 ± 0.012 | -0.021 ± 0.042
